Data taken from patent publication US11008337B2, “Chiral diaryl macrocycles as modulators of protein kinases” (Turning Point Therapeutics, Inc., priority 2015, dated 2021).

Assays:
Assay type in all cases: cell-based
[1] = test system: Colorectal cell lines KM 12 (harboring endogenous TPM3-TRKA fusion gene); assay: Cell proliferation assay, KM12 cells (CellTiter-Glo); conditions: Homo sapiens, 72 hours incubation
[2] = test system: essential thrombocythemia cell line SET-2 cells (harboring endogenous JAK2 point mutation); assay: Cell proliferation assay, SET-2 cells (CellTiter-Glo); conditions: Homo sapiens, 72 hours incubation, read-out: Cell Proliferation IC50 SET2
Summary of the method: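 Karpas-299 (NPM-ALK) or SET-2 (JAK2 […]) cells in RPMI with 10% FBS, seeded 24 h before compound addition. Viability read by CellTiter-Glo ATP luminescence after 72 h incubation; IC50 derived from dose–response curves.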

EML4-ALK Ba/F3 = biological target: T1, EML4-ALK Ba/F3 (Homo sapiens, UniProt Q9UM73); assay: Cell proliferation assay, EML4-ALK Ba/F3 stable cell line (CellTiter-Glo); conditions: Ba/F3-EML4-ALK wild type (variant 1) cells, 72 hours compound incubation; read-out: Cell Proliferation IC50 EML4-ALK Ba/F3
T1 construct: fused on or other part: Q9HC35 (Echinoderm microtubule-associated protein-like 4)
T1 sequence (Q9UM73 whole entry, change not shown, the tested form may be a part): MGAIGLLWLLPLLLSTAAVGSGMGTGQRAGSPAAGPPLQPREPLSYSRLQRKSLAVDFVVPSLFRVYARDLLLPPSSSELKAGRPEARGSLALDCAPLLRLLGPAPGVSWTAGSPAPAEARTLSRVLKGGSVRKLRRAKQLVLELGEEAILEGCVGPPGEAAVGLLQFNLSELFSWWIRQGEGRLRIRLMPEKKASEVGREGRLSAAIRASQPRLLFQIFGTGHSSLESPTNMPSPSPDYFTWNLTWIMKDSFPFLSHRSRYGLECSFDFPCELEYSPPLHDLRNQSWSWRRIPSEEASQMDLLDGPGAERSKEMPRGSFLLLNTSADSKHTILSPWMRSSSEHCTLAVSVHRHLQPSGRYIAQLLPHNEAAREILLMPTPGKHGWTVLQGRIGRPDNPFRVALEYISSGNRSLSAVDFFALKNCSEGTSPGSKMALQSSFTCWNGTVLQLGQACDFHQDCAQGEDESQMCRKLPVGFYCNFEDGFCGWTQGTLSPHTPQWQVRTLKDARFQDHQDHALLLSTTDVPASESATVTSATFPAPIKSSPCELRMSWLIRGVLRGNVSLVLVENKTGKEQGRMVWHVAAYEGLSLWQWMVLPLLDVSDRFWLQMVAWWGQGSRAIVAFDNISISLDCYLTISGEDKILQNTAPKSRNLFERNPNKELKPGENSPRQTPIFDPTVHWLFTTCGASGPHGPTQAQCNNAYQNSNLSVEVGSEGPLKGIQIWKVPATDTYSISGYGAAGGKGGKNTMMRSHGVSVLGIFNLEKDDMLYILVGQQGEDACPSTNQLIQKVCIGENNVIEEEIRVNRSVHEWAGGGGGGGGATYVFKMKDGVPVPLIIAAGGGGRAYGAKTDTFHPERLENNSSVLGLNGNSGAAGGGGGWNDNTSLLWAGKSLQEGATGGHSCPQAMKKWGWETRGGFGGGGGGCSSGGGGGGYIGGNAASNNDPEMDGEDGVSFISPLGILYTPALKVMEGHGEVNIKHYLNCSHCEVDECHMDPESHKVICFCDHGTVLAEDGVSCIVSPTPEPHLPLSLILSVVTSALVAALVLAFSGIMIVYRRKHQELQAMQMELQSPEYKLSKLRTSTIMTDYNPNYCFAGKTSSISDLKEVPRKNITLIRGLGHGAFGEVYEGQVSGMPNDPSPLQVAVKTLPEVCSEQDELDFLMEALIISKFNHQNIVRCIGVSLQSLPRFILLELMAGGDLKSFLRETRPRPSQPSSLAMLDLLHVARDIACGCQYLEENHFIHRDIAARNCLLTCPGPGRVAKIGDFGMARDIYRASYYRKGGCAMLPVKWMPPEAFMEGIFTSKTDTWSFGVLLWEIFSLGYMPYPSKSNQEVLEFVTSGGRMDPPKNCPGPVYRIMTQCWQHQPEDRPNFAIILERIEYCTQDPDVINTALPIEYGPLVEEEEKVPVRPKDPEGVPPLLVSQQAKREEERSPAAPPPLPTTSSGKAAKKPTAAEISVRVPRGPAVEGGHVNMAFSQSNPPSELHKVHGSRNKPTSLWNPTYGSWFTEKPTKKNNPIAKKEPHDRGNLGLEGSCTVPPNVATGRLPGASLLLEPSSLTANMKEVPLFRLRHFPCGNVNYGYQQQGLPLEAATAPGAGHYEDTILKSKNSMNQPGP
Summary of the method: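 Ba/F3 cells were lentivirally transduced with wild-type CD74-ROS1 or EML4-ALK (variant 1), selected with puromycin and made IL-3-independent. Cells (3000/well) were seeded overnight and then treated with the compounds at various concentrations for 72 h. Proliferation was read by CellTiter-Glo ATP luminescence, and IC50 values were fitted.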

[3] = test system: T cell lymphoma Karpas-299 cell line (harboring endogenous NPM-ALK fusion gene); assay: Cell proliferation assay, Karpas-299 cells (CellTiter-Glo); conditions: Homo sapiens, 72 hours incubation
Procedure: Cell Proliferation Assays.
Colorectal cell lines KM 12 (harboring endogenous TPM3-TRKA fusion gene) cells were cultured in DMEM medium, supplemented with 10% fetal bovine serum and 100 U/mL of penicillin/streptomycin. 5000 cells were seeded in 384 well white plate for 24 hours before compounds treatment. Cell proliferation was measured using CellTiter-Glo luciferase-based ATP detection assay (Promega) following the manufactures's protocol after 72 hours incubation. IC50 determinations were performed using GraphPad Prism software (GraphPad, Inc., San Diego, Calif.). Alternatively, essential thrombocythemia cell line SET-2 cells (harboring endogenous JAK2 […] point mutation) or T cell lymphoma Karpas-299 cell line (harboring endogenous NPM-ALK fusion gene) were cultured in RPMI medium, supplemented with 10% fetal bovine serum and 100 U/mL of penicillin/streptomycin. 5000 cells were seeded in 384 well white plate for 24 hours before compounds treatment. Cell proliferation was measured using CellTiter-Glo luciferase-based ATP detection assay (Promega) following the manufactures's protocol after 72 hours incubation. IC50 determinations were performed using GraphPad Prism software (GraphPad, Inc., San Diego, Calif.).

CD74-ROS1 Ba/F3 = biological target: T2, CD74-ROS1 Ba/F3 (Homo sapiens, UniProt P08922); assay: Cell proliferation assay, CD74-ROS1 Ba/F3 stable cell line (CellTiter-Glo); conditions: Ba/F3-CD74-ROS1 wild type cells, 72 hours compound incubation; read-out: Cell Proliferation IC50 CD74-ROS1 Ba/F3
T2 construct: fused on or other part: P04233 (HLA class II histocompatibility antigen gamma chain)
T2 sequence (P08922 whole entry, change not shown, the tested form may be a part): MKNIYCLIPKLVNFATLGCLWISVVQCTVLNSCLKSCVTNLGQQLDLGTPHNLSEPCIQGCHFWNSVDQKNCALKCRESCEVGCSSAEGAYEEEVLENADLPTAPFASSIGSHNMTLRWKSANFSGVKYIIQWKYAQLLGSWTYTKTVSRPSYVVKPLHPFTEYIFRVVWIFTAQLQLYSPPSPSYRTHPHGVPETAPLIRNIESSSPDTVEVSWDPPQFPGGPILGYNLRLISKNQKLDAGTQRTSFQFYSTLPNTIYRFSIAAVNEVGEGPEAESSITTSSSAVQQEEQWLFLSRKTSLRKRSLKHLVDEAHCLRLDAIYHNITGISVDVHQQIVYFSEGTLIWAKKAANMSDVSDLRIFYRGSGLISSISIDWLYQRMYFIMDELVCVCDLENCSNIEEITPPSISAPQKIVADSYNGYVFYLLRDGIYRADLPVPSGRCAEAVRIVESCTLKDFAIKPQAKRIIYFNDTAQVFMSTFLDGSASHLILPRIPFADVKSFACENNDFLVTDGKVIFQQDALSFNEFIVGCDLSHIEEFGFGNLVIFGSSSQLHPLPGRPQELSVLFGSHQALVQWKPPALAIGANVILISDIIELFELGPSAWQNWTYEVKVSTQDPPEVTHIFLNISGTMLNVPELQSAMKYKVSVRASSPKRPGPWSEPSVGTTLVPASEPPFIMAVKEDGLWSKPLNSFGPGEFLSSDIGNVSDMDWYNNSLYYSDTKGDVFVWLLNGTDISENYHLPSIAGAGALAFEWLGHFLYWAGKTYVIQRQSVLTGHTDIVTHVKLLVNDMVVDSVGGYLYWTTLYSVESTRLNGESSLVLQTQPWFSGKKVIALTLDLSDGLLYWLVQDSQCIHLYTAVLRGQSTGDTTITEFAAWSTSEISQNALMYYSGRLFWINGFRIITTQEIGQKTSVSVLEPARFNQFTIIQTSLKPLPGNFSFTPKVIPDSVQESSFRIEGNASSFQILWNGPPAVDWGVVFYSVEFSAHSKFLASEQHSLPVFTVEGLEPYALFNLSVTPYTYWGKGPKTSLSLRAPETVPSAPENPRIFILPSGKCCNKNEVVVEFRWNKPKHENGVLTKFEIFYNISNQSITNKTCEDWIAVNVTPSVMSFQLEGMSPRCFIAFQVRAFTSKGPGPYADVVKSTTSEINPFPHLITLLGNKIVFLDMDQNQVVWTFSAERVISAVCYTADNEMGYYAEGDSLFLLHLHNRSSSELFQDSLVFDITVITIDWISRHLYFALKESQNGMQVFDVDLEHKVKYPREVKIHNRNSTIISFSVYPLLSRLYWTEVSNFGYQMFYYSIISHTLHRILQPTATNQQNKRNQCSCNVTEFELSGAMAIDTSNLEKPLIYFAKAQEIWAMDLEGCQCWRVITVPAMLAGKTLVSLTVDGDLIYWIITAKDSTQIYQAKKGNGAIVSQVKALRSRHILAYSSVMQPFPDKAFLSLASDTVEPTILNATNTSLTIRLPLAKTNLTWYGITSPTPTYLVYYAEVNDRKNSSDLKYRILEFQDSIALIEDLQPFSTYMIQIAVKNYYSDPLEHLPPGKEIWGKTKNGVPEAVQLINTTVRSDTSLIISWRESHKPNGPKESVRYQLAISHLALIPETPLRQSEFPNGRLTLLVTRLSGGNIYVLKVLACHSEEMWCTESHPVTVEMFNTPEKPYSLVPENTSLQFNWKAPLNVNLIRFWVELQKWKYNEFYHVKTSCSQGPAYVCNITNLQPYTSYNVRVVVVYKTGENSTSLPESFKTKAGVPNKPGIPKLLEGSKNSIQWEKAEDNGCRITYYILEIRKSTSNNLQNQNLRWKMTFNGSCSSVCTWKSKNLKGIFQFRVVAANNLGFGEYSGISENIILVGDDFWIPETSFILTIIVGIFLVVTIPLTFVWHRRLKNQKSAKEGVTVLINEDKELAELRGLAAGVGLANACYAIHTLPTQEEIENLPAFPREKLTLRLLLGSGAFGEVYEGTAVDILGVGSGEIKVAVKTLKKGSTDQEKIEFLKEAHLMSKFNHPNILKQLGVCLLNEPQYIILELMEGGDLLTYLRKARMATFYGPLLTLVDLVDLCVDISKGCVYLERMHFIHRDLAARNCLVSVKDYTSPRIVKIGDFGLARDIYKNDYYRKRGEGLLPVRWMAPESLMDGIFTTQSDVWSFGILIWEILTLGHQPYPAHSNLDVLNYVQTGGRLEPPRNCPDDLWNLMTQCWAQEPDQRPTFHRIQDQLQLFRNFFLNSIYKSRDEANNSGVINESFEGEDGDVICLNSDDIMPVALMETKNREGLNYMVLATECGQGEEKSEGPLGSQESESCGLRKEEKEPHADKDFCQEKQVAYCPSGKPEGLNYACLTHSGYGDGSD
From the text: Creation of CD74-ROS1 and EML4-ALK Ba/F3 Stable Cell Lines and Cell Proliferation Assays.
The CD74-ROS1 wild-type gene and EML4-ALK wild-type gene (variant 1) were synthesized at GenScript and cloned into pCDH-CMV-MCS-EF1-Puro plasmid (System Biosciences, Inc). Ba/F3-CD74-ROS1 and Ba/F3-EML4-ALK wild type cell lines were generated by infecting Ba/F3 cells with lentivirus containing CD74-ROS1 wide-type and EML4-ALK wild type. Stable cell lines were selected by puromycin treatment, followed by IL-3 withdrawal. 3000 cells were seeded in 384 well white plate overnight before compound treatment. Cell proliferation was measured using CellTiter-Glo luciferase-based ATP detection assay (Promega) following the manufactures's protocol after 72 hours of various concentration of compound incubation. IC50 determinations were performed using GraphPad Prism software (GraphPad, Inc., San Diego, Calif.).

Row | Structure (SMILES) | IC50 [1] [µM] | IC50 [2] [µM] | GI50 (EML4-ALK Ba/F3) [µM] | IC50 [3] [µM] | GI50 (CD74-ROS1 Ba/F3) [µM]
1 | C[C@H]1Nc2ccn3ncc(c3n2)C(=O)NC[C@@H](CO)Oc2ccc(F)cc21 [Compound 7, (7S,13R)-11-fluoro-7-(hydroxymethyl)-13-methyl-6,7,13,14-tetrahydro-1,15-ethenopyrazolo[4,3-f][1,4,8,10]benzoxatriazacyclotridecin-4(5H)-one] | 0.0168 | 0.19 | 0.715 | 0.438 | 0.0226
2 | CC[C@H]1COc2ccc(F)cc2[C@@H](C)Nc2ccn3ncc(c3n2)C(=O)N1 [Compound 4, (6S,13R)-6-ethyl-11-fluoro-13-methyl-6,7,13,14-tetrahydro-1,15-ethenopyrazolo[4,3-f][1,4,8,10]benzoxatriazacyclotridecin-4(5H)-one] | 0.0003 | 1.37 | 0.892 | 1.37 | 0.0002
3 | CNC(=O)[C@@H]1CNC(=O)c2cnn3ccc(nc23)N[C@H](C)c2cc(F)ccc2O1 [Compound 14, (7S,13R)-7-(N-methylcarboxamide)-11-fluoro-13-methyl-6,7,13,14-tetrahydro-1,15-ethenopyrazolo[4,3-f][1,4,8,10]benzoxatriazacyclotridecin-4(5H)-one] | 0.18 | 3.78 | > 10 | > 10 | 0.3
4 | CC[C@H]1CNC(=O)c2cnn3ccc(nc23)N[C@H](C)c2cc(F)ccc2O1 [Compound 3, (7S,13R)-7-ethyl-11-fluoro-13-methyl-6,7,13,14-tetrahydro-1,15-ethenopyrazolo[4,3-f][1,4,8,10]benzoxatriazacyclotridecin-4(5H)-one] | 0.0003 | 0.263 | 0.138 | 0.083 | 0.0002
